Assays:
[1] = Example 1A: pharmacokinetics of subcutaneous (SC) and sublingual (SL) dosing in dogs; format: in vivo; settings: male, beagle, dog, 1 mg/kg, tosylate salt, plasma; for AUC: 0-24 hours
Method: SC Administration: Six male beagle dogs between 2 and 5 years of age are randomized in two groups of three dogs each. […] Dogs in group 2 are administered the Compound of Formula II at a dose of 1 mg/kg (free base equivalent) in a 0.5% methylcellulose/distilled water vehicle. Administration is subcutaneous in the intrascapular region via a 22 or 23 gauge needle. Whole blood samples are collected via the dog's cephalic vein pre-dose, and at post-dose time-points 5, 15 and 30 minutes, 1, 2, 4, 6, 8 and 24 hours. Following a minimum 7-day washout period, the dogs are transferred to the sublingual portion of the study.
Dogs in group 2 are administered the Compound of Formula II at a dose of 1 mg/kg (free base equivalent) in a 0.5% methylcellulose/distilled water vehicle. The animals are anesthetized prior to administration of the dose using propofol (6 mg/kg) and anesthesia is maintained for 30 minutes using 3-4.5% isoflurane. Administration is sublingual and the dosage is applied for 30 minutes, then wiped off using unwoven gauze. Whole blood samples are collected via the dog's cephalic vein pre-dose, and at post-dose time-points 5, 15 and 30 minutes, 1, 2, 4, 6, 8, 24, 36 and 48 hours.
All blood samples are processed to plasma and analyzed for drug concentrations using liquid chromatography-tandem mass spectrometry (LC-MS/MS). Area under the curve (AUC) of parent and metabolites based on plasma versus time data are calculated using Prism 5.04 software (GraphPad Software, Inc.).

[2] = Example 1B: SC and SL pharmacokinetics in dogs with metabolite analysis; format: in vivo; settings: male, beagle, dog, 1 mg/kg, plasma, analyte parent; for AUC: 0-24 hours
Method: SC Administration: Six male beagle dogs between 2 and 5 years of age are randomized in two groups of three dogs each. […] Administration is subcutaneous in the intrascapular region via a 22 or 23 gauge needle. […] Following a minimum 7-day washout period, the dogs are transferred to the sublingual portion of the study. SL Administration: […] The animals are anesthetized prior to administration of the dose using propofol (6 mg/kg) and anesthesia is maintained for 30 minutes using 3-4.5% isoflurane. Administration is sublingual and the dosage is applied for 30 minutes, then wiped off using unwoven gauze. […] All blood samples are processed to plasma and analyzed for drug concentrations using liquid chromatography-tandem mass spectrometry (LC-MS/MS). Area under the curve (AUC) of parent and metabolites based on plasma versus time data are calculated using Prism 5.04 software (GraphPad Software, Inc.). A second study is performed substantially as described for Example 1A, except that plasma samples are analyzed for the parent (administered) compounds, as well as for the major known metabolites. […] The results are summarized in Table 1B below (AUC is shown for 0-24 hours): […]

[3] = Example 2: pharmacokinetics of oral dosing in dogs; format: in vivo; settings: both sexes, beagle, dog, plasma, oral capsules, tosylate salt; for AUC: 0-24 hours
Method: For control, the dogs are administered empty capsules. For the Compound of Formula I, the dogs are administered normal-release oral capsules. Blood samples are obtained at 0.25 hours, 0.5 hours, 1 hour, 4 hours, 8 hour and 24 hours. […] Cmax, Tmax and area-under-the-curve (AUC, 0-24 hours) are calculated using Phoenix WinNonlin software.

[4] = Example 3: pharmacokinetics of SC and IV dosing in monkeys; format: in vivo; settings: cynomolgus monkey, 0.5 mg/kg, plasma; for AUC: read-out: AUC, Parent Compound; for Cmax: read-out: Cmax, Parent Compound; for Tmax: read-out: Tmax, Parent Compound
Method: Six Cynomolgus monkeys are divided into two groups for IV and SC dosing with the Compound of Formula I. The animals are dosed in a fasting state. Blood samples are collected pre-dose, and at 5 minutes, 15 minutes, 1, 2, 4, 6, 8, 24, 36 and 48 hours post-dose. All blood samples are processed to plasma and later analyzed by liquid chromatography-tandem mass spectrometry. […] PK parameters are calculated using PK Solutions 2.0 software (Summit Research Services, Colorado, US).

muscarinic receptors = settings: cited from earlier work
oral bioavailability = settings: in vivo
5-HT2C receptors = biological target: T1, 5-HT2C receptors (Homo sapiens, UniProt P28335); settings: cited from earlier work
T1 sequence (P28335 33-458): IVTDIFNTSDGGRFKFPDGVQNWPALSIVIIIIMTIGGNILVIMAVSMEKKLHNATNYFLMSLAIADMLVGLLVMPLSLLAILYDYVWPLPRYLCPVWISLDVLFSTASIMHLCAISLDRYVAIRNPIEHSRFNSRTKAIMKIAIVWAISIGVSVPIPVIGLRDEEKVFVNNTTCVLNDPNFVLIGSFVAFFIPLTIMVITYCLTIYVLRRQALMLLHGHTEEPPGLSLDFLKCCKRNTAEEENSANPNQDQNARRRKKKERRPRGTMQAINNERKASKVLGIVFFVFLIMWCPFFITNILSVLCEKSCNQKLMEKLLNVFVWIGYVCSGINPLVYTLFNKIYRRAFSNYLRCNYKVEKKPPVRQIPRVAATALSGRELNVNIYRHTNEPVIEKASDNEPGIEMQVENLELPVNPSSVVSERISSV

[5] = biological target: H1 histaminergic receptors (Homo sapiens, UniProt P35367); settings: cited from earlier work
Sequence of H1 histaminergic receptors (P35367 whole entry): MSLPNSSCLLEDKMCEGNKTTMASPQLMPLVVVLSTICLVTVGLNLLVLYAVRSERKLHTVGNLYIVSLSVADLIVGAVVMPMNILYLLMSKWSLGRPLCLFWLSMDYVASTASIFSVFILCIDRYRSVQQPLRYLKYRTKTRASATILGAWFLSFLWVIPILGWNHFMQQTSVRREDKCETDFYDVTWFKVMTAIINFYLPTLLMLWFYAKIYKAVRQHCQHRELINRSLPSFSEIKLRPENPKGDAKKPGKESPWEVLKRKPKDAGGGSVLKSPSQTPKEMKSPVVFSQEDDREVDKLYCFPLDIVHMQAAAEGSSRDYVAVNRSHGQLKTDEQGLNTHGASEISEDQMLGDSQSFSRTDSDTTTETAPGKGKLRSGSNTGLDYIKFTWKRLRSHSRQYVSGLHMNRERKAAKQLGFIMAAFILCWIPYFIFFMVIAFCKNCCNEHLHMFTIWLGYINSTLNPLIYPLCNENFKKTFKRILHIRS

**Q.** What does the source list for `[2H]C1([2H])CN2c3c(cccc3N1C)[C@@H]1CN(CCCC(=O)c3ccc(F)cc3)CC[C@@H]12` [Compound of Formula II, 1-(4-fluoro-phenyl)-4-((6bR,10aS)-2,2-d2-3-methyl-2,3,6b,9,10,10a-hexahydro-1H,7H-pyrido[3′,4′:4,5]pyrrolo[1,2,3-de]quinoxalin-8-yl)-butan-1-one]?
**A.** Cmax ([1]; SC): 79 ng/mL; Tmax ([1]; SC): 1 h; AUC ([1]; SC): 785 ng·h/mL; Cmax ([1]; SL): 562 ng/mL; Tmax ([1]; SL): 1 h; AUC ([1]; SL): 1260 ng·h/mL; AUC ([2]; SC): 785 ng·h/mL; AUC ([2]; SL): 1260 ng·h/mL; Cmax ([2]; SC): 79 ng/mL; Tmax ([2]; SC): 1 h; Cmax ([2]; SL): 562 ng/mL; Tmax ([2]; SL): 1 h

**Q.** With `CN1CCN2c3c(cccc31)[C@@H]1CN(CCCC(=O)c3ccc(F)cc3)CC[C@@H]12` [Compound of Formula I, 1-(4-fluoro-phenyl)-4-((6bR,10aS)-3-methyl-2,3,6b,9,10,10a-hexahydro-1H,7H-pyrido[3′,4′:4,5]pyrrolo[1,2,3-de]quinoxalin-8-yl)-butan-1-one] as the molecule, how does the Cmax ([3]; 2.5 mg/kg) read?
**A.** The Cmax was 5.51 ng/mL.

**Q.** And the Tmax ([3]; 2.5 mg/kg)?
**A.** Its Tmax is 0.469 h.

**Q.** And the AUC ([3]; 2.5 mg/kg)?
**A.** Its AUC is 40 ng·h/mL.

**Q.** And the Cmax ([3]; 5 mg/kg)?
**A.** Its Cmax is 7.72 ng/mL.

**Q.** What about the Tmax ([3]; 5 mg/kg) of the same molecule?
**A.** The Tmax was 0.875 h.

**Q.** What about the AUC ([3]; 5 mg/kg) of the same molecule?
**A.** Its AUC is 52.5 ng·h/mL.

**Q.** And the Cmax ([3]; 10 mg/kg)?
**A.** Its Cmax is 29 ng/mL.

**Q.** What about the Tmax ([3]; 10 mg/kg) of the same molecule?
**A.** Its Tmax is 0.813 h.

**Q.** And the AUC ([3]; 10 mg/kg)?
**A.** Its AUC is 142 ng·h/mL.

**Q.** And the Cmax ([3]; 15 mg/kg)?
**A.** The Cmax was 44.5 ng/mL.

**Q.** What about the Tmax ([3]; 15 mg/kg) of the same molecule?
**A.** The Tmax was 1.63 h.

**Q.** What about the AUC ([3]; 15 mg/kg) of the same molecule?
**A.** Its AUC is 248 ng·h/mL.

**Q.** And the AUC ([4]; Cynomolgus, SC)?
**A.** Its AUC is 220 ng·h/mL.

**Q.** What about the Cmax ([4]; Cynomolgus, SC) of the same molecule?
**A.** The Cmax was 23 ng/mL.

**Q.** What about the Tmax ([4]; Cynomolgus, SC) of the same molecule?
**A.** The Tmax was 2 h.

**Q.** What about the bioavailability ([4]; Cynomolgus, subcutaneous, SC administration, read-out: bioavailability (comparison of IV to SC pharmacokinetics)) of the same molecule?
**A.** The bioavailability was about 74%.

**Q.** What about the AUC ([4]; IV) of the same molecule?
**A.** The AUC was 297 ng·h/mL.

**Q.** What about the Cmax ([4]; IV) of the same molecule?
**A.** The Cmax was 94 ng/mL.

**Q.** What about the Tmax ([4]; IV) of the same molecule?
**A.** Its Tmax is 0.083 h.

**Q.** And the Cmax ([1]; SC)?
**A.** The Cmax was 110 ng/mL.

**Q.** What about the Tmax ([1]; SC) of the same molecule?
**A.** The Tmax was 1 h.

**Q.** What about the AUC ([1]; SC) of the same molecule?
**A.** The AUC was 813 ng·h/mL.

**Q.** What about the Cmax ([1]; SL) of the same molecule?
**A.** Its Cmax is 259 ng/mL.

**Q.** What about the Tmax ([1]; SL) of the same molecule?
**A.** The Tmax was 1 h.

**Q.** And the AUC ([1]; SL)?
**A.** Its AUC is 734 ng·h/mL.

**Q.** What about the AUC ([2]; SC) of the same molecule?
**A.** Its AUC is 560 ng·h/mL.

**Q.** And the AUC ([2]; SL)?
**A.** The AUC was 507 ng·h/mL.

**Q.** And the Cmax ([2]; SC)?
**A.** Its Cmax is 76 ng/mL.

**Q.** What about the Tmax ([2]; SC) of the same molecule?
**A.** The Tmax was 1 h.

**Q.** What about the Cmax ([2]; SL) of the same molecule?
**A.** Its Cmax is 179 ng/mL.

**Q.** What about the Tmax ([2]; SL) of the same molecule?
**A.** Its Tmax is 1 h.

**Q.** What about the “binding to muscarinic receptors” value (muscarinic receptors) of the same molecule?
**A.** The value was “negligible binding”.

**Q.** What about the bioavailability (oral bioavailability) of the same molecule?
**A.** The bioavailability was at most 5%.

**Q.** What about the “binding to 5-HT2C receptors” value (5-HT2C receptors) of the same molecule?
**A.** The value was “negligible binding”.

**Q.** What about the “binding to H1 histaminergic receptors” value [5] of the same molecule?
**A.** The value was “negligible binding”.

— patent US12144808B2, “Compositions and methods” (INTRA-CELLULAR THERAPIES, INC., priority 2018, dated 2024)
